{
  "source": "patent US8420335B2",
  "about": "“Inhibition of GASC1” (Kobenhavns Universitet, priority 2006, dated 2013)",
  "key": {"[1]": {"molecular_target": "T1, GASC1 (Homo sapiens, UniProt Q9H3R0)", "T1 construct": "Full-length amino-terminally hexahistidine-tagged human GASC1 baculovirus transfer vector; made in house; host or cells: baculovirus-infected insect cells (pAcHLT-A transfer vector, Bakpak6)", "T1 sequence (Q9H3R0 1-1056)": "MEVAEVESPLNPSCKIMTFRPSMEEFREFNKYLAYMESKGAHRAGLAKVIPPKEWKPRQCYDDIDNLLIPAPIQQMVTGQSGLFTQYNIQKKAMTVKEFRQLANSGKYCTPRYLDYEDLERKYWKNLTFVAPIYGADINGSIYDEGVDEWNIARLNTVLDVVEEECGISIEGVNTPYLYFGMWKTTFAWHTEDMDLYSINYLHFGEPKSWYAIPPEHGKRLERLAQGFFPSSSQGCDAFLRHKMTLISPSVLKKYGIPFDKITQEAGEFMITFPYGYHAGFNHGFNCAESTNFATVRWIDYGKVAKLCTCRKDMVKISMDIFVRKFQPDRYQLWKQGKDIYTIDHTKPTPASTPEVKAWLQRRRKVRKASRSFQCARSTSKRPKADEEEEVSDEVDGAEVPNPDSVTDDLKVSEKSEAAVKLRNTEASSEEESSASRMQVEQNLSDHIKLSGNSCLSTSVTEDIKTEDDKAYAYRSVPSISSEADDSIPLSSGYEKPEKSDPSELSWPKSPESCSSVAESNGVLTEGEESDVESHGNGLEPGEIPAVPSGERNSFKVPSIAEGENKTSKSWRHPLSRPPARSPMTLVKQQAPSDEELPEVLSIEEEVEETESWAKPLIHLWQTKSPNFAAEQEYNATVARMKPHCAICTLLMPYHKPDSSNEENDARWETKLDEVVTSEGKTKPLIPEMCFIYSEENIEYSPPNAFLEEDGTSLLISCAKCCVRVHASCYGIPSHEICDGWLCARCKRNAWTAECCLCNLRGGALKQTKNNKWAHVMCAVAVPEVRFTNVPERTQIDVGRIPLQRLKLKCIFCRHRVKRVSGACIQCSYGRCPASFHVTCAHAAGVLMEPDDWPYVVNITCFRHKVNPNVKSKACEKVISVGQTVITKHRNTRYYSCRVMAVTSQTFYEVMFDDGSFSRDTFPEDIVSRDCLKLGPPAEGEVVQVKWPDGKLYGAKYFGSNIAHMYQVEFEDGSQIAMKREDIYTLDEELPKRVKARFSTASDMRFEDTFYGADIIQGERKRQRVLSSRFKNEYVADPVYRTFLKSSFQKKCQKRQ", "experiment": "Demethylation assay: recombinant His-GASC1 with bulk histones or H3K9me3 peptide, western blotting", "assay_type": "biochemical"}, "[2]": {"test_system": "U2OS", "experiment": "Quercetin treatment of U2OS cells: H3K9me3, senescent-like phenotype, growth", "assay_type": "cell-based, human", "details": "low/moderate GASC1 level"}, "[3]": {"test_system": "WI38", "experiment": "Quercetin treatment of WI38 cells: H3K9me3, senescent-like phenotype, growth", "assay_type": "cell-based", "details": "WI38, low/moderate GASC1 level", "excerpt": "(§1) The biological effects of quercetin have previously been attributed to inhibition of topoisomerase I^43, modulation of protein and lipid kinase signalling pathways^44 and scavenging of reactive oxygen species^45, In light of the present findings it is tempting to speculate that the anti-cancer effect of quercetin might at least partially by explained by its inhibitory effect on GASC1 and other members of the JMJD2 subfamily."}, "[4]": {"test_system": "KYSE-150 cells", "experiment": "Overnight quercetin treatment of KYSE-150 cells: H3K9me3 by immunofluorescence and western blotting, growth, senescence", "assay_type": "cell-based, human"}, "[5]": {"test_system": "KYSE-450 cells", "experiment": "Quercetin treatment of KYSE-450 cells: H3K9me3, senescent-like phenotype, growth", "assay_type": "cell-based, human", "details": "KYSE-450, low/moderate GASC1 level", "excerpt": "as §1"}, "[6]": {"details": "His-GASC1, bulk histones, co-factors FeSO4 and α-ketoglutarate, 30 min at 37° C., western blotting"}},
  "note": "Entries after “also recorded” stand apart in the source; their conditions may differ. Like-named read-outs stand apart in the source and are kept apart here.",
  "data": [
    {"smiles": "O=C(O)CN(CCN(CC(=O)O)CC(=O)O)CC(=O)O", "note": "[EDTA]", "values": [
      {"measurement": "GASC1 demethylation of H3K9me3 in the presence of EDTA", "setting": "[1]; EDTA (chelating iron), 30 min at 37° C., western blotting", "value": "significantly reduced"}
    ]},
    {"smiles": "O=c1c(O)c(-c2ccc(O)c(O)c2)oc2cc(O)cc(O)c12", "note": "[quercetin]", "values": [
      {"measurement": "inhibition of GASC1-mediated demethylation of H3K9me3", "setting": "[1]; [6]", "value": "able to effectively inhibit GASC1-mediated demethylation of H3K9me3 in vitro"},
      {"measurement": "inhibition of GASC1-mediated demethylation of H3K9me3", "setting": "[1]; His-GASC1, bulk histones, co-factors FeSO4 and α-ketoglutarate, 30 min at 37° C., western blotting, listed as quercetine", "value": "able to inhibit the demethylation reaction effectively"},
      {"measurement": "H3K9me3 increase, senescent-like phenotype and growth inhibition compared with KYSE-150", "setting": "[2]", "value": "did not display the same increase in H3K9me3 nor the same senescent-like phenotype and growth inhibition"},
      {"measurement": "H3K9me3 increase, senescent-like phenotype and growth inhibition compared with KYSE-150", "setting": "[3]", "value": "did not display the same increase in H3K9me3 nor the same senescent-like phenotype and growth inhibition"},
      {"measurement": "growth rate", "setting": "[4]; data not shown", "value": "marked decrease of growth rate"},
      {"measurement": "phenotype (cell morphology, SAHFs, β-gal staining)", "setting": "[4]; data not shown", "value": "senescent-like phenotype"},
      {"measurement": "H3K9 trimethylation", "setting": "[4]; immunofluorescence and western blotting", "value": "staggering increase in H3K9 trimethylation"},
      {"measurement": "H3K9me3 increase, senescent-like phenotype and growth inhibition compared with KYSE-150", "setting": "[5]", "value": "did not display the same increase in H3K9me3 nor the same senescent-like phenotype and growth inhibition"}
    ]},
    {"smiles": "O=C(O)CNC(=O)C(=O)O", "note": "[N-oxalylglycine]", "values": [
      {"measurement": "inhibition of GASC1-mediated demethylation of H3K9me3", "setting": "[1]; [6]", "value": "able to inhibit the demethylation reaction effectively"}
    ]},
    {"smiles": "[Cl-].[Cl-].[Co+2]", "note": "[CoCl2]", "values": [
      {"measurement": "inhibition of GASC1-mediated demethylation of H3K9me3", "setting": "[1]", "value": "inhibit GASC1 demethylation activity; also recorded: able to inhibit the demethylation reaction effectively"}
    ]},
    {"smiles": "O=S(=O)([O-])[O-].[Ni+2]", "note": "[NiSO4]", "values": [
      {"measurement": "inhibition of GASC1-mediated demethylation of H3K9me3", "setting": "[1]; [6]", "value": "inhibit GASC1 demethylation activity; also recorded: able to inhibit the demethylation reaction effectively"}
    ]}
  ]
}
